Results reported in publication PMC11062922 (Nature Chemical Biology, 2023).
Like-named read-outs stand apart in the source and are kept apart here.

What was measured:
ACAD11 = target: T1, ACAD11 (Homo sapiens, UniProt Q709F0); assay: Kinobeads two-dose competition binding: ACAD11; conditions: sheet CATDS matrix 2; Gene Name ACAD11
T1 construct: endogenous in cells
T1 sequence (Q709F0 1-780): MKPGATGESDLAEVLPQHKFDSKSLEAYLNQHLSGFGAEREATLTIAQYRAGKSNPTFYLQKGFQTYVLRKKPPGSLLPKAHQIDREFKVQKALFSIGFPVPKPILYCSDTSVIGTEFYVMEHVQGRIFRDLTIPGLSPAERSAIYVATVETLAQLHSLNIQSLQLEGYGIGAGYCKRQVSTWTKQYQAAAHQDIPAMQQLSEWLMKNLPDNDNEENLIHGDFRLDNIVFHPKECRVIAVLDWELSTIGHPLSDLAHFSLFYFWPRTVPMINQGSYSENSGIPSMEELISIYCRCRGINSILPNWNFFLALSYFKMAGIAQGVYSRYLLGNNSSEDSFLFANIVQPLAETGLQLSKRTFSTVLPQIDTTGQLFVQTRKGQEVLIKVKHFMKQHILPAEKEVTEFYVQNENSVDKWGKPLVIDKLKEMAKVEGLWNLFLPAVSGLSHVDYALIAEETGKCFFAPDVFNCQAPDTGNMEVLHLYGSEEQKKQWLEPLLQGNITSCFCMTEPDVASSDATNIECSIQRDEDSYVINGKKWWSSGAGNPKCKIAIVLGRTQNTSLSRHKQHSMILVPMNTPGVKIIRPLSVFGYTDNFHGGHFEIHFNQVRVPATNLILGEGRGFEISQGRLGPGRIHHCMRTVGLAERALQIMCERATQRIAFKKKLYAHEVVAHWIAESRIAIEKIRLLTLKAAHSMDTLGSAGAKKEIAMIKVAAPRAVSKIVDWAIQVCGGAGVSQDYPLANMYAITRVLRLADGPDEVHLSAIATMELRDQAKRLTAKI

ABL1 [1] = target: T2, ABL1 (Homo sapiens, UniProt P00519); assay: Kinobeads two-dose competition binding: ABL1; conditions: sheet CATDS matrix 2; Gene Name ABL1
ABL2 [2] = target: T3, ABL2 (Homo sapiens, UniProt P42684); assay: Kinobeads two-dose competition binding: ABL2; conditions: sheet CATDS matrix 2; Gene Name ABL2
T3 construct: endogenous in cells

ABL2 [3] = target: T3, ABL2; assay: Kinobeads two-dose competition binding: ABL2; conditions: sheet "Kinobeads Drugmatrix - all"; unit inferred; read-out: Kinobeads Drugmatrix - all: apparent Kd, ABL2
ACOX1 = target: T4, ACOX1 (Homo sapiens, UniProt Q15067); assay: Kinobeads two-dose competition binding: ACOX1; conditions: sheet CATDS matrix 2; Gene Name ACOX1;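 further: competition of compounds with immobilized broad-spectrum kinase inhibitor beads in cell lysate at 100 and 1,000 nM, 45 min at 4 °C, bead-bound protein quantified by label-free MS versus DMSO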
T4 construct: endogenous in cells
T4 sequence (Q15067 1-660): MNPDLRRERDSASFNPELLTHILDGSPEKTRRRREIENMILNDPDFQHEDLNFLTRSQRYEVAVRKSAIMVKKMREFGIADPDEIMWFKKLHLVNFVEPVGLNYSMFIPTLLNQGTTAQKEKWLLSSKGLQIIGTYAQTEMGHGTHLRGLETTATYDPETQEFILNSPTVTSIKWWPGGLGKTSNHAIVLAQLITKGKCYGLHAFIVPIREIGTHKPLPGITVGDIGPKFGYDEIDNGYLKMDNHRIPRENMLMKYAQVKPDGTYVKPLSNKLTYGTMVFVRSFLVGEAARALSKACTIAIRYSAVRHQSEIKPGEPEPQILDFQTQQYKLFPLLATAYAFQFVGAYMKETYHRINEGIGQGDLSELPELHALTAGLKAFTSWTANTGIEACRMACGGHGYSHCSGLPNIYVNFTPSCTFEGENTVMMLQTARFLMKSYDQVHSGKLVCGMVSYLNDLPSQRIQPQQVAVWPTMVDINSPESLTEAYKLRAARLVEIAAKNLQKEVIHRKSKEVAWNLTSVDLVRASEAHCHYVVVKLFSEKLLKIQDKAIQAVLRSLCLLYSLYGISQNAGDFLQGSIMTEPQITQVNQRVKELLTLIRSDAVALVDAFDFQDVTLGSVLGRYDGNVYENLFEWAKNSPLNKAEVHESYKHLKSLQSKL

ABL1 [4] = target: T2, ABL1; assay: Kinobeads two-dose competition binding: ABL1; conditions: sheet "Kinobeads Drugmatrix - all"; unit inferred; read-out: Kinobeads Drugmatrix - all: apparent Kd, ABL1
AAK1 = target: T5, AAK1 (Homo sapiens, UniProt Q2M2I8); assay: Kinobeads two-dose competition binding: AAK1; conditions: for CATDS: sheet CATDS matrix 2, Gene Name AAK1; for potency estimated from few doses: read-out: Kinobeads Drugmatrix - all: apparent Kd, AAK1;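 on all read-outs here: kinobeads competition pulldown from cell lysate, compound preincubated 45 min at 4 °C, bead-bound protein measured by label-free mass spectrometry against DMSO vehicle control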
T5 construct: to maximize the representation of endogenous proteins; endogenous in cells

PKN3 = PKN3 (Homo sapiens, UniProt Q6P5Z2); assay: NanoBRET in-cell target engagement in HEK293T cells: PKN3; assay type: cell-based; parameters: full-length PKN3, CSNK2A1 or CSNK2A2 ORF; host or cells: HEK293T;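 further: Full-length PKN3 with C-terminal NanoLuc expressed in HEK293T cells, serial inhibitor dilutions competing against Kinase Tracer K5 at 500 nM, BRET read after 2 h at 37 °C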
[5] = HEK293T cells, in-cell target engagement, read-out: IC50 PKN3 NanoBRET
[6] = average of replicates, read-out: Average of IC50 values NanoBRET PKN3
[7] = biological replicate number 1, read-out: Rep 1 IC50 NanoBRET PKN3
[8] = biological replicate number 2, read-out: Rep 2 IC50 NanoBRET PKN3
[9] = biological replicate number 3, read-out: Rep 3 IC50 NanoBRET PKN3
[10] = biological replicate number 4, read-out: Rep 4 IC50 NanoBRET PKN3
[11] = sheet "Kinobeads Drugmatrix - all", unit inferred, same values below 1000 recur in sheet "nanomolar"

T2 sequence (P00519 28-1130 limits assumed): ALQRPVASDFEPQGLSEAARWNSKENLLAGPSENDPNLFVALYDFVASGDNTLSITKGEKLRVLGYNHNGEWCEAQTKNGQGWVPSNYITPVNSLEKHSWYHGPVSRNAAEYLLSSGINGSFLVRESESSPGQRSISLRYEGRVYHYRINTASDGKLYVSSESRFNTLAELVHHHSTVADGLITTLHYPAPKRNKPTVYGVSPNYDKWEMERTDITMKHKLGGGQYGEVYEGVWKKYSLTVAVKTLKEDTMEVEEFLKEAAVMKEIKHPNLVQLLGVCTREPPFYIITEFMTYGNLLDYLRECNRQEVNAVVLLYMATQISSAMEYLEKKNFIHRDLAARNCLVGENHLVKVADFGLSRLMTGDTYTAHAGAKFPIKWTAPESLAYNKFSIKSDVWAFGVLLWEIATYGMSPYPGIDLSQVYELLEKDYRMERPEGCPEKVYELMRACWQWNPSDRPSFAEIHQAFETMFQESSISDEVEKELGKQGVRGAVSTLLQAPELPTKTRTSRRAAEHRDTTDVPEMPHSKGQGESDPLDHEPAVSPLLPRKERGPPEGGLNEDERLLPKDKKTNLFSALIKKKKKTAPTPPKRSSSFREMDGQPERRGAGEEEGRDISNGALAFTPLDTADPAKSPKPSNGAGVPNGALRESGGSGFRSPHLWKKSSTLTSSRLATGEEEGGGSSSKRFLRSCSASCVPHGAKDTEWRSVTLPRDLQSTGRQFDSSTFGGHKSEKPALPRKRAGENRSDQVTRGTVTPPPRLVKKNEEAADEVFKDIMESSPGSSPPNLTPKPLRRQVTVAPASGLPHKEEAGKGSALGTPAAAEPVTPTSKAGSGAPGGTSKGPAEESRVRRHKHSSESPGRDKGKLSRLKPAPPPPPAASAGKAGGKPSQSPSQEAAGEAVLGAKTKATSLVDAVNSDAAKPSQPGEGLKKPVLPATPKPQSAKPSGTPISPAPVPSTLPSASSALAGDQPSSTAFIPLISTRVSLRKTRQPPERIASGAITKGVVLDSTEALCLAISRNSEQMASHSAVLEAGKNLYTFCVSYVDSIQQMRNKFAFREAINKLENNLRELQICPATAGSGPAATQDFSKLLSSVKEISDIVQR
T5 sequence (Q2M2I8 whole entry): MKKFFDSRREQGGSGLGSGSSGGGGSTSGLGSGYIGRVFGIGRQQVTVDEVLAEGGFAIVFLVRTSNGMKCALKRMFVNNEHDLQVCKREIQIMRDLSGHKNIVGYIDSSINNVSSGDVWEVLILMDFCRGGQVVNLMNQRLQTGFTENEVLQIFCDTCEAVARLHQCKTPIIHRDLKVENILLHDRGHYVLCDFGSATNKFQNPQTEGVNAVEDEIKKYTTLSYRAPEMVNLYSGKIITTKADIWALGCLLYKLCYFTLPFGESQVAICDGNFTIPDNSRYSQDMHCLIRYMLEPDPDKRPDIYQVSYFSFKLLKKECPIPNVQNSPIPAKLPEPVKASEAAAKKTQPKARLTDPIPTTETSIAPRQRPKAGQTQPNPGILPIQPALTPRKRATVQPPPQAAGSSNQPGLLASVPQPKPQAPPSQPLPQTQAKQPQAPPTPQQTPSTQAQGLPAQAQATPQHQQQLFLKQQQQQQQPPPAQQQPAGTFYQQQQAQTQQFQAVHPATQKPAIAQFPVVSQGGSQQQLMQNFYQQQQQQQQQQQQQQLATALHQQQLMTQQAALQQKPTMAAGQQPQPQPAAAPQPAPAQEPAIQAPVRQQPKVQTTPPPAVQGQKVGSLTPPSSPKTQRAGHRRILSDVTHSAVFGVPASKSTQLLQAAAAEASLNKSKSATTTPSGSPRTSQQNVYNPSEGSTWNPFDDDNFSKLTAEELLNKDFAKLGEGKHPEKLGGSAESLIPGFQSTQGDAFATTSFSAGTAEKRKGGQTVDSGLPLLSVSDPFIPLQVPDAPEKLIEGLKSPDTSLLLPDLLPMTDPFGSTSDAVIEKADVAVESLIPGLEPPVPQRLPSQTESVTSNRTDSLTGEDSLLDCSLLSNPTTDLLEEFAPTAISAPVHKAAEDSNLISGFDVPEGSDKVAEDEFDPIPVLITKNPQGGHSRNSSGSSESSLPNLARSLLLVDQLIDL
T3 sequence (P42684 whole entry): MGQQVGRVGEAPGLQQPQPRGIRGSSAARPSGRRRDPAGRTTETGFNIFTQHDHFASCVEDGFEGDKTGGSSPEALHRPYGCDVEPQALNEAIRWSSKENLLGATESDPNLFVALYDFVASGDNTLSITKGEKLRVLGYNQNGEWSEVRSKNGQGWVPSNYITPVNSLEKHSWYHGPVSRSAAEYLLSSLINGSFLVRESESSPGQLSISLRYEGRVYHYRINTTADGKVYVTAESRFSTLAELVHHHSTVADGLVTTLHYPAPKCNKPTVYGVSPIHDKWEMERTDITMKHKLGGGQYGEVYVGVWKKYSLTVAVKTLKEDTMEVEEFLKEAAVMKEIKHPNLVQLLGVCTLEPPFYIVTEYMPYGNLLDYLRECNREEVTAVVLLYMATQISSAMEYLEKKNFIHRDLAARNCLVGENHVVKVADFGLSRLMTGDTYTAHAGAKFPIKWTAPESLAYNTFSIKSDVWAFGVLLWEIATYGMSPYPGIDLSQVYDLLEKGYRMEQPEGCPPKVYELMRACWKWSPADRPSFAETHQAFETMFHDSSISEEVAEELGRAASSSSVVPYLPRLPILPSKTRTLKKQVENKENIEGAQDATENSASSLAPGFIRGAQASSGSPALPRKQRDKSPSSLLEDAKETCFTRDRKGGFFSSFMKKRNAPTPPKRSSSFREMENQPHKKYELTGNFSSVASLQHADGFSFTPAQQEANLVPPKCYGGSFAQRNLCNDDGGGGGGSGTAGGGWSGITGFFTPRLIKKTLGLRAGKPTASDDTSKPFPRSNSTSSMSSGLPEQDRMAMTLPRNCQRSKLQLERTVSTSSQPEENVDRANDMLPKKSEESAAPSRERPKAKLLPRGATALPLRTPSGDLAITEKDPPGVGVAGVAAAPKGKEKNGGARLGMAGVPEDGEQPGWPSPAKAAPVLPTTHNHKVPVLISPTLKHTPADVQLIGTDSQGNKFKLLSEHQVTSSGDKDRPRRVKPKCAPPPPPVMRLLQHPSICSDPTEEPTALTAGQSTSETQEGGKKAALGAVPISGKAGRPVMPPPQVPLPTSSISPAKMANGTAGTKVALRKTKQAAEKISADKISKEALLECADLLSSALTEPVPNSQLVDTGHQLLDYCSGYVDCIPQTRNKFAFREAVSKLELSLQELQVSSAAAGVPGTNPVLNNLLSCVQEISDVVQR
Chain of PKN3 (Q6P5Z2 whole entry): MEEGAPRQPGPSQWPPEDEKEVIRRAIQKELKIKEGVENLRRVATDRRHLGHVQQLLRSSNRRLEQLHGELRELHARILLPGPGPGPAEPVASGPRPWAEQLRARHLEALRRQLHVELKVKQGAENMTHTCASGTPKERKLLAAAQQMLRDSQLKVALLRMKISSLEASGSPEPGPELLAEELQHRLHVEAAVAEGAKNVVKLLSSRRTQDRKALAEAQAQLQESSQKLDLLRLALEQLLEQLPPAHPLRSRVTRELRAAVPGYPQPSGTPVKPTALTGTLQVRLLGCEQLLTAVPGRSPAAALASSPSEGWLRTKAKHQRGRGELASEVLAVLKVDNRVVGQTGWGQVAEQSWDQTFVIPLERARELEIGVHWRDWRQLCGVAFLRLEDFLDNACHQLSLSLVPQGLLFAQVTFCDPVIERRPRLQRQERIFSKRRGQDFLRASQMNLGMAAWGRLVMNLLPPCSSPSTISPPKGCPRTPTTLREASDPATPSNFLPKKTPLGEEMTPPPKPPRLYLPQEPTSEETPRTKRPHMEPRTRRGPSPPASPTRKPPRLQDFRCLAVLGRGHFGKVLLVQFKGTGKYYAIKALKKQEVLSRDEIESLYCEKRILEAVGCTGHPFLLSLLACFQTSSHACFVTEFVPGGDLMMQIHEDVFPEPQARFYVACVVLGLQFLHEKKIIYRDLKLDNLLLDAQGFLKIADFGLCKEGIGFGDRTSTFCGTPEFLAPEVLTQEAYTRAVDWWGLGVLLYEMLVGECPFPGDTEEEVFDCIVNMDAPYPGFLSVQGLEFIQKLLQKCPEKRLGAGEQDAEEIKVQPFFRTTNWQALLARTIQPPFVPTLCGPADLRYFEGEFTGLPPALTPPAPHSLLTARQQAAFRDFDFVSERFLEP

| CATDS (ACAD11) | CATDS (ABL1 [1]) | CATDS (ABL2 [2]) | potency estimated from few doses (ABL2 [3]) [nM] | CATDS (ACOX1) | potency estimated from few doses (ABL1 [4]) [nM] | CATDS (AAK1) | IC50 (PKN3; [5]) [nM] | IC50 (PKN3; [6]) [nM] | IC50 (PKN3; [7]) [nM] | IC50 (PKN3; [8]) [nM] | IC50 (PKN3; [9]) [nM] | IC50 (PKN3; [10]) [nM] | potency estimated from few doses (AAK1; [11]) [nM] | SMILES | potency estimated from few doses (AAK1) [nM] |
| --- | --- | --- | --- | --- | --- | --- | --- | --- | --- | --- | --- | --- | --- | --- | --- |
| 0 | 0.01362 | 0.01375 | 389 | 0 | 401 | 0 | – | – | – | – | – | – | – | CNC(=O)c1ccccc1Nc1nc(Nc2cccc(CS(C)(=O)=O)c2)ncc1C [GSK1520489A] | – |
| 0 | 0 | 0 | – | 0 | – | 0 | 11000 | 6970 | 11100 | 9200 | 6130 | 1430 | – | CCn1c(-c2nonc2N)nc2c(C#CC(C)(C)O)nc(CN3CCCC3)cc21 [GSK1000163A] | – |
| – | – | – | – | – | – | – | – | 513 | 538 | 1230 | 111 | 173 | – | CNc1ncc2cc(-c3cc(NC(=O)NCCC(C)(C)C)c(F)cc3C)c(C)nc2n1 [LY3009120, reference compound] | – |
| – | – | – | – | – | – | – | – | 22900 | 19100 | 20600 | 50100 | 1840 | – | ON=C1CCc2cc(-c3nc(C4CCNCC4)[nH]c3-c3ccncc3)ccc21 [SB-614067-R] | – |
| – | – | – | – | – | – | – | – | 7970 | 12900 | 11200 | 4910 | 2820 | – | CCn1c(-c2nonc2N)nc2c(C#CCN)ncc(OCCCN)c21 [GSK561866B] | – |
| 0 | 0.02015 | 0.03972 | 93.8 | 0 | 368 | 0 | – | – | – | – | – | – | – | CC(C)c1nc(-c2cccc(NS(=O)(=O)c3ccccc3)c2)c(-c2ccnc(Nc3ccc4c(c3)CN(C)CC4)n2)s1 [GSK1649598A] | – |
| – | – | – | – | – | – | – | – | 26700 | – | 922 | – | 257 | – | Cc1cccc2c(-c3ccncn3)c(-c3ccc(F)cc3)nn12 [GW515532X] | – |
| 0 | 0.04923 | 0 | – | 0 | 661 | 0 | – | – | – | – | – | – | – | COc1cc2nccc(Nc3ccc(Oc4ccccc4)cc3)c2cc1OC [GI261656A] | – |
| 0 | 0.03302 | 0.1009 | 126 | 0 | 970 | 0 | – | – | – | – | – | – | – | CC(C)c1nc(-c2ccc(F)c(NS(=O)(=O)c3c(F)cccc3F)c2)c(-c2ccnc(Nc3ccc(N4CCOCC4)nc3)n2)s1 [GSK1804250A] | – |
| 0 | 0.0244 | 0.05939 | 61.3 | 0 | 301 | 0 | – | – | – | – | – | – | – | CC(C)c1nc(-c2cccc(NS(=O)(=O)c3c(F)cccc3F)c2)c(-c2ccnc(Nc3ccc(N4CCOCC4)nc3)n2)s1 [GSK1723980B] | – |
| 0 | 0 | 0 | – | 0 | – | 0 | 2060 | – | – | – | – | – | – | NC[C@@](O)(c1ccc(Cl)cc1)c1ccc(-c2cn[nH]c2)cc1 [AT-13148, reference compound] | – |
| 0 | 0 | 0.03238 | 956 | 0 | – | 0 | – | – | – | – | – | – | – | COc1cc2ncn(-c3cc(OCCCc4ccccc4)c(C(N)=O)s3)c2cc1OC [GSK205189A] | – |
| 0 | 0.02525 | 0.07581 | 101 | 0 | 706 | 0 | – | – | – | – | – | – | – | CC(C)c1nc(-c2cccc(NS(=O)(=O)c3c(F)cccc3F)c2F)c(-c2ccnc(Nc3ccc(N4CCOCC4)nc3)n2)s1 [GSK2008607A] | – |
| 0 | 0.02989 | 0.06803 | 166 | 0 | 746 | 0 | – | – | – | – | – | – | – | CC(=O)N1CCN(c2ccc(Nc3nccc(-c4sc(C(C)C)nc4-c4cccc(NS(=O)(=O)c5ccccc5)c4)n3)cn2)CC1 [GSK1645872A] | – |
| – | – | – | – | – | – | – | – | 97.8 | 310 | 31.2 | 28.1 | 22.3 | – | CCn1c(-c2nonc2N)nc2c(C#CC(C)(C)O)nc(OC[C@@H](N)c3ccccc3)cc21 [GSK938890A] | – |
| 0 | 0 | 0.05238 | 515 | 0 | > 1000 | 0 | – | – | – | – | – | – | – | CN1CCc2ccc(Nc3nccc(-c4c(-c5cccc(NC(=O)c6c(F)cccc6F)c5)nc5ccccn45)n3)cc2C1 [GSK1010829B] | – |
| 0 | 0.026 | 0.1551 | 7.68 | 0 | 83.2 | 0.01178 | – | – | – | – | – | – | 460 | Clc1cc(Cl)cc(Nc2ccnc(Nc3cc(Cl)cc(Cl)c3)n2)c1 [GSK175726A] | – |
| 0 | 0 | 0.07869 | 351 | 0 | – | 0 | – | – | – | – | – | – | – | CC(=O)N1CCN(c2ccc(Nc3nccc(-c4sc(C(C)C)nc4-c4cccc(NS(=O)(=O)c5cccc(Cl)c5)c4)n3)cn2)CC1 [GSK1660437A] | – |
| – | – | – | – | – | – | – | – | 910 | 2110 | 552 | – | 73.9 | – | COc1cccc2c(-c3ccncc3)c(-c3ccc(F)cc3)nn12 [GW468513X] | – |
| – | – | – | – | – | – | – | 4100 | 1580 | 4190 | 472 | – | 87.1 | – | Cc1cccc(-c2nc(Nc3ccncc3)c3sccc3n2)n1 [GW869641X] | – |
| 0 | 0.01209 | 0.008409 | 334 | 0 | 112 | 0.01049 | – | – | – | – | – | – | 164 | COc1ccc(Nc2ncc(C#N)c(Nc3ccccc3C(N)=O)n2)cc1N1CCN(C)CC1 [GSK1558669A] | – |

| SMILES | CATDS (ACAD11) | CATDS (ABL1 [1]) | CATDS (ABL2 [2]) | potency estimated from few doses (ABL2 [3]) [nM] | CATDS (ACOX1) | potency estimated from few doses (ABL1 [4]) [nM] | CATDS (AAK1) | IC50 (PKN3; [5]) [nM] | IC50 (PKN3; [6]) [nM] | IC50 (PKN3; [7]) [nM] | IC50 (PKN3; [8]) [nM] | IC50 (PKN3; [9]) [nM] | IC50 (PKN3; [10]) [nM] | potency estimated from few doses (AAK1; [11]) [nM] | potency estimated from few doses (AAK1) [nM] |
| --- | --- | --- | --- | --- | --- | --- | --- | --- | --- | --- | --- | --- | --- | --- | --- |
| CNC(=O)c1ccccc1Nc1nc(Nc2ccc(N3CCOCC3)cc2)ncc1Cl [GSK1576028A] | 0 | 0 | 0 | – | 0 | > 1000 | 0.02054 | – | – | – | – | – | – | – | 142 |
